In US4536335A, “Carbapenem antibiotics” (Bristol-Myers Company, priority 1983, dated 1985):
In brackets after ≈: the same amount, converted by molar mass. Read-outs that look alike come from different tables or passages of the source.

Key:
[1] = test system: S. aureus A-9537; test: In vitro MIC, tube dilution; type: cell-based; settings: Staphylococcus aureus, overnight incubation at 37° C.
[2] = test system: P. vulgaris A21559; test: In vitro MIC, tube dilution; type: cell-based; settings: Proteus vulgaris, A21559, tube dilution, Nutrient Broth, overnight incubation at 37° C.
[3] = test system: E. coli A20341-1; test: In vitro MIC, tube dilution; type: cell-based; settings: Escherichia coli, A203411, tube dilution, Nutrient Broth, overnight incubation at 37° C.
[4] = test system: S. pyogenes A-9604; test: In vitro MIC, tube dilution; type: cell-based; settings: Streptococcus pyogenes, A9604, tube dilution, Nutrient Broth, overnight incubation at 37° C.
[5] = test system: S. aureus A-9606 (Pen-res.); test: In vitro MIC, tube dilution; type: cell-based; settings: Staphylococcus aureus, Nutrient Broth, overnight incubation at 37° C., read-out: MIC S. aureus A-9606 (Pen-res.)
[6] = test system: P. aeruginosa A-9843A; test: In vitro MIC, tube dilution; type: cell-based; settings: Pseudomonas aeruginosa, A9843A, Nutrient Broth, overnight incubation at 37° C.
[7] = test system: P. rettgeri A22424; test: In vitro MIC, tube dilution; type: cell-based; settings: Providencia rettgeri, A22424, tube dilution, Nutrient Broth, overnight incubation at 37° C.
[8] = Urinary recovery after intramuscular administration to mice; type: in vivo; settings: mouse, urine, im, 20 mg/kg, mice, i.m. 20 mg/kg
Description: Compounds were solubilized in 0.1 M phosphate buffer pH 7. Values are from a single test; 4 mice per compound.
(§1) Also shown is the urinary recovery in the mice.
***Recovery based on 0-6 hour collection

[9] = test system: P. morganii A15153; test: In vitro MIC, tube dilution; type: cell-based; settings: Morganella morganii, A15153, tube dilution, Nutrient Broth, overnight incubation at 37° C.; read-out: MIC P. morganii A15153
[10] = test system: S. marcescens A20019; test: In vitro MIC, tube dilution; type: cell-based; settings: Serratia marcescens, A20019; tube dilution, Nutrient Broth, overnight incubation at 37° C.
[11] = test system: E. coli A15119; test: In vitro MIC, tube dilution; type: cell-based; settings: Escherichia coli, A15119, tube dilution, Nutrient Broth, overnight incubation at 37° C.
[12] = test system: E. cloacae A-9569; test: In vitro MIC, tube dilution; type: cell-based; settings: Enterobacter cloacae, A9569, Nutrient Broth, overnight incubation at 37° C.
Text: (§2) N-Formimidoyl thienamycin was included as a comparison compound.

[13] = test system: B. fragilis A22862; test: In vitro MIC, tube dilution; type: cell-based; settings: Bacteroides fragilis, Nutrient Broth, overnight incubation at 37° C.
Text: as §2

[14] = test system: B. fragilis A22696; test: In vitro MIC, tube dilution; type: cell-based; settings: Bacteroides fragilis, Nutrient Broth, overnight incubation at 37° C.
Text: as §2

[15] = test system: B. fragilis A22053; test: In vitro MIC, tube dilution; type: cell-based; settings: Bacteroides fragilis, Nutrient Broth, overnight incubation at 37° C.
Text: as §2

[16] = test system: B. fragilis A22863; test: In vitro MIC, tube dilution; type: cell-based; settings: Bacteroides fragilis, Nutrient Broth, overnight incubation at 37° C.
Text: as §2

[17] = test system: P. mirabilis A-9900; test: In vitro MIC, tube dilution; type: cell-based; settings: Proteus mirabilis, A9900, tube dilution, Nutrient Broth, overnight incubation at 37° C.
[18] = test system: K. pneumoniae A-9664; test: In vitro MIC, tube dilution; type: cell-based; settings: Klebsiella pneumoniae, A9664, tube dilution, Nutrient Broth, overnight incubation at 37° C.
[19] = test system: P. mirabilis A-9900; test: Protective effect in the intramuscular treatment of infected mice (PD50); type: in vivo; settings: Proteus mirabilis, A9900, im, read-out: PD50/Treatment, P. mirabilis A-9900
Description: (§3) Treatment Schedule: Mice were treated i.m. with drugs 0 and 2 hours post-infection; 5 mice per dose were used for each test

[20] = Toxicity after intracranial administration to mice; settings: mouse, in vivo
Text: | *Average of 25/mice/compound

[21] = test system: E. cloacae A-9656; test: In vitro MIC, tube dilution; type: cell-based; settings: Enterobacter cloacae, A9656; tube dilution, Nutrient Broth, overnight incubation at 37° C.
[22] = test system: P. aeruginosa A21213; test: In vitro MIC, tube dilution; type: cell-based; settings: Pseudomonas aeruginosa, A21213, tube dilution, Nutrient Broth, overnight incubation at 37° C.
[23] = test system: P. aeruginosa A-9843a; test: Protective effect in the intramuscular treatment of infected mice (PD50); type: in vivo; settings: Pseudomonas aeruginosa, A9843A, im; mice, challenge 3 × 10^6 organisms, treated i.m. 0 and 2 hours post-infection; read-out: PD50/Treatment, P. aeruginosa A-9843a
Description: The PD50 (dose in mg/kg required to give protection to 50% of the infected mice) is indicated.
as §3
*For compound of Ex. 2, mice were infected i.p. with 2 × 10^9
compounds of Ex. 4 and 5, mice were infected i.p. with ~9 ×
were treated i.m. with drugs 0 and 2 h postinfection.

[24] = test system: K. pneumoniae A20468; test: In vitro MIC, tube dilution; type: cell-based; settings: Klebsiella pneumoniae, A20468, tube dilution, Nutrient Broth, overnight incubation at 37° C.
[25] = test system: S. faecalis A20688; test: In vitro MIC, tube dilution; type: cell-based; settings: Enterococcus faecalis, A20688, tube dilution, Nutrient Broth, overnight incubation at 37° C.
[26] = Blood levels in mice after intramuscular administration; type: in vivo; settings: mouse, blood, im, mice, i.m. 20 mg/kg
Text: Compounds were solubilized in 0.1 M phosphate buffer pH 7. Values are fro
a single test; 4 mice used per compound.
*t1/2 refers to halflife in minutes
**AUC refers to the area under the blood concentrationtime curve
as §1
Compounds were solubilized in 0.1 M phosphate buffer, pH 7.
Values based on a single test; 4 mice per compound.
*T1/2 refers to halflife in minutes

[27] = test system: S. pneumoniae A-9585; test: In vitro MIC, tube dilution; type: cell-based; settings: Streptococcus pneumoniae, A9585, Nutrient Broth, overnight incubation at 37° C.

C[C@@H](O)[C@H]1C(=O)N2C(C(=O)[O-])=C(SCC[N+]3(C)CCCC3)C[C@H]12 [Example 1, 3-[2-(N-methylpyrrolidinium)ethylthio]-6α-[1-(R)-hydroxyethyl]-7-oxo-1-azabicyclo [3.2.0]hept-2-ene-2-carboxylate]
MIC ([1]; A9537, + 50% serum, tube dilution, read-out: MIC S. aureus + 50% serum A-9537): 0.016 µg/mL
MIC ([1]; A9537, tube dilution, Nutrient Broth, read-out: MIC S. aureus A-9537): 0.008 µg/mL (≈ 0.0235 µM)
MIC [2]: 0.03 µg/mL (≈ 0.0881 µM)
MIC [3]: 0.03 µg/mL (≈ 0.0881 µM)
MIC [4]: 0.002 µg/mL (≈ 0.00587 µM)
MIC [5]: 0.016 µg/mL (≈ 0.047 µM)
MIC [6]: 4 µg/mL (≈ 11.7 µM)
MIC [7]: 0.25 µg/mL (≈ 0.734 µM)
dose excreted at 3 h ([8]; 0-3 hours after administration, read-out: Percentage of Dose Recovered in urine, 0-3 hours): 18.8%
dose excreted at 24 h ([8]; 0-24 hours after administration, read-out: Percentage of Dose Recovered in urine, 0-24 hours): 19.5 ± 3.2%
dose excreted at 6 h ([8]; 3-6 hours after administration, read-out: Percentage of Dose Recovered in urine, 3-6 hours): 0.6%
dose excreted at 24 h ([8]; 6-24 hours after administration, read-out: Percentage of Dose Recovered in urine, 6-24 hours): 0.1%
MIC [9]: 0.13 µg/mL (≈ 0.382 µM)
MIC [10]: 0.06 µg/mL (≈ 0.176 µM)
MIC [11]: 0.03 µg/mL (≈ 0.0881 µM)
MIC [12]: 0.25 µg/mL (≈ 0.734 µM)
MIC [13]: 0.13 µg/mL (≈ 0.382 µM)
MIC [14]: 0.5 µg/mL (≈ 1.47 µM)
MIC [15]: 0.25 µg/mL (≈ 0.734 µM)
MIC [16]: 0.13 µg/mL (≈ 0.382 µM)
MIC [17]: 0.13 µg/mL (≈ 0.382 µM)
MIC [18]: 0.06 µg/mL (≈ 0.176 µM)
ED50 [19]: > 10 mg/kg
NOAEL [20]: > 10 mg/kg
LD50 ([20]; intracranial administration to mice, average of 25 mice/compound): > 10 mg/kg
MIC [21]: 0.13 µg/mL (≈ 0.382 µM)
MIC [22]: 0.25 µg/mL (≈ 0.734 µM)
ED50 [23]: 3 mg/kg
MIC [24]: 0.13 µg/mL (≈ 0.382 µM)
MIC [25]: 1 µg/mL (≈ 2.94 µM)
AUC ([26]; 20 mg/kg, Example 1 table, read-out: AUC (area under the blood concentration-time curve)): 5400 ng·h/mL
half-life ([26]; 20 mg/kg, Example 1 table, read-out: t1/2 (half-life in blood)): 11 min
concentration at 10 min ([26]; 10 min, read-out: Blood Level 10 minutes after administration): 13700 ng/mL
concentration at 20 min ([26]; 20 min, read-out: Blood Level 20 minutes after administration): 10200 ng/mL
concentration at 0.5 h ([26]; 30 min, read-out: Blood Level 30 minutes after administration): 5700 ng/mL
concentration at 0.75 h ([26]; 45 min, read-out: Blood Level 45 minutes after administration): 2100 ng/mL
concentration at 1 h ([26]; 60 min, read-out: Blood Level 60 minutes after administration): < 600 ng/mL
concentration at […] ([26]; 90 min, read-out: Blood Level 90 minutes after administration): < 600 ng/mL
MIC [27]: 0.002 µg/mL (≈ 0.00587 µM)
